Experimental data as given in US10660890B2, “Treatment of polycystic diseases with an HDAC6 inhibitor” (NATIONAL INSTITUTES OF HEALTH (NIH), U.S. DEPT. OF HEALTH …, priority 2013, dated 2020).

What was measured:
Male PKC-1 rats = test: Kidney cyst volume in male PCK-1 rats, oral gavage 12 weeks; assay type: in vivo, rat; settings: oral gavage once daily for 12 weeks; histological analysis
Procedure: Male PKC-1 rats (4 weeks old, n=12) were treated by oral gavage once daily with the indicated dose of compounds for 12 weeks. The animals were sacrificed and kidneys were removed and fixed in formalin. The volume of cysts in the kidneys was measured by histological analysis (see FIG. 7). As a comparison, 6 rats were sacrificed at 4 weeks to measure the starting volume of renal cysts (control).

β-catenin [1] = test: Western blot, β-catenin (total, phospho-, acetyl-) in PCK cholangiocytes; assay type: cell-based, rat
Procedure: (§1) PCK cholangiocytes were treated with 20 μM Tubastatin A or 2 μM Tubacin, lysed and used for Western blotting. […] Actin was used as a loading control. FIG. 3B depicts representative images of Western blots (n=3) showing HDAC6 inhibitors increase the amount of phospho- and acetyl-β-catenin compared to untreated cells using total-β-catenin as loading control. […] (*p<0.05).
(§2) Protein isolated from cultured control rat and PCK rat cholangiocytes were analyzed. Cells were scrapped, resuspended in Phosphate Buffered Saline (PBS) with Protease Inhibitors, Sodium Orthovanadate and Phenylmethanesulfonylfluoride (PMSF), sonicated and equal amounts of sample protein were diluted in Laemmli Sample Buffer (Biorad) and mercaptoethanol. After SDS polyacrylamide gel electrophoresis, SDS-PAGE, proteins were transferred to nitrocellulose membranes, blocked, and then incubated with the following primary antibodies: HDAC6 (Santa Cruz Biotechnology, D-11, 1:500), acetylated-α-tubulin (Sigma Aldrich, 1:2000), β-catenin (Cell Signaling Technology, (D10A8) XP® Rabbit mAb; 1:1000), Phospho-β-Catenin (Ser33/37/Thr41) (Cell Signaling Technology, 1:1000), acetyl-β-catenin (Cell Signaling Technology, 1:1000), c-myc (Santa Cruz Biotechnology, 1:500), cyclin D1 (Santa Cruz Biotechnology, 1:500), and actin (Sigma Aldrich, 1:5000). The membranes were incubated overnight at 4° C., washed and incubated for 1 hour at room temperature with horseradish perodixase-conjugated (1:5000, Invitrogen) or IRdye 680 or 800 (1:15000, Odyssey) corresponding secondary antibody. The ECL system or Odyssey Licor Scanner was used for protein detection and the Gel-Pro Analyzer 6.0 software was used for densitometry analysis.
(§3) For a better understanding of the mechanisms that are responsible for the inhibition of PCK cholangiocyte proliferation and cyst growth in 3D culture, cultured PCK cholangiocytes were treated with tubastatin-A and tubacin and the amount of acetylated α-tubulin and β-catenin was determined by Western blotting.

acetylated α-tubulin = test: Western blot, acetylated α-tubulin in PCK cholangiocytes; assay type: cell-based, rat
Procedure: as §1
Protein isolated from cultured control rat and PCK rat cholangiocytes were analyzed. Cells were scrapped, resuspended in Phosphate Buffered Saline (PBS) with Protease Inhibitors, Sodium Orthovanadate and Phenylmethanesulfonylfluoride (PMSF), sonicated and equal amounts of sample protein were diluted in Laemmli Sample Buffer (Biorad) and mercaptoethanol. […]
as §3

[2] = system: biliary cysts freshly isolated from PCK rats; test: 3D-culture cyst growth in collagen matrix; assay type: cell-based, rat; settings: after four days
Procedure: Freshly isolated bile ducts from PCK rats were embedded in a rat-tail type I Collagen matrix (BD Biosciences) and grown in the presence or absence of 10 μmol/L Tubastatin A and 2 μmol/L Tubacin. Images of the growing cysts were taken every day over a period of 5 days and cyst size was measured with the software “Image J” (National Institute of Health). The circumferential areas for each cystic structure was compared to day 0 to calculate percentages of growth as previously described (see Muff et al. Development and characterization of a cholangiocyte cell line from the PCK rat, an animal model of Autosomal Recessive Polycystic Kidney Disease, Lab Invest 2006, 86:940-950; Masyuk et al. Octreotide inhibits hepatic cystogenesis in a rodent model of polycystic liver disease by reducing cholangiocyte adenosine 3′,5′-cyclic monophosphate, Gastroenterology (2007) 132:1104-1116 27; Lee et al. MicroRNA15a modulates expression of the cell-cycle regulator Cdc25A and affects hepatic cystogenesis in a rat model of polycystic kidney disease, J. Clin. Invest. (2008) 118:3714-3724 28. Gradilone et al. Activation of Trpv4 reduces the hyperproliferative phenotype of cystic cholangiocytes from an animal model of ARPKD, Gastroenterology (2010) 139:304-314 e302).

PCK rat cholangiocytes = test: Proliferation assay, PCK rat cholangiocytes (MTS / cell counting); assay type: cell-based; settings: for reduction of proliferation of PCK cholangiocytes: day 3, MTS
Source text: For in vitro experiments, cholangiocytes were isolated from control rats, PCK rats (an animal model for […], LaRusso N F: Development and characterization of polarized primary cultures of rat intrahepatic bile duct epithelial cells, Lab Invest 1996, 74:303-313), healthy human beings and ADPKD patients (Masyuk et al. Biliary exosomes influence cholangiocyte regulatory mechanisms and proliferation through interaction with primary cilia, Am J Physiol Gastrointest Liver Physiol (2010) 299:G990-999; O'Hara et al. Cholangiocyte N-Ras protein mediates lipopolysaccharide-induced interleukin 6 secretion and proliferation, J Biol Chem (2011) 286:30352-30360; Banales et al. Up-regulation of microRNA 506 leads to decreased Cl(-)/HCO(3) (-) anion exchanger 2 expression in biliary epithelium of patients with primary biliary cirrhosis, Hepatology (2012) 56(2):687-97). Cholangiocytes were cultured in Collagen-I-coated flasks (BD Biocoat). All cell lines were incubated in NRC Media at 37° C., 5% CO2, 100% humidity. NRC Media contains Dulbecco's modified Eagle medium/F12 with the following additions: 0.01 mL/mL Minimum Essential Media (MEM) nonessential amino acids, 0.01 mL/mL lipid concentrate, 0.01 mL/mL MEM vitamin solution, 2 mmol/L L-glutamine, 0.05 mg/mL soybean trypsin inhibitor, 0.01 mL/mL insulin/transferring/selenium-S, 5% fetal bovine serum, […] bovine pituitary extract, 25 ng/mL epidermal growth factor, 393 ng/mL dexamethasone, […] 3,3-,5-triiodo-L-thyronine, 4.11 µg/mL forskolin, and 1% penicillin-streptomycin. […] The drug vehicle, DMSO, was suspended in NRC Media as a control. Cell proliferation was assessed with the CellTiter 96 AQueous One Solution (MTS; Promega) and/or counting cells using the Cellometer Auto T4 Cell Counter (Nexcelom Bioscience).

[3] = system: human ADPKD cholangiocytes; test: 3-day proliferation assay, human ADPKD cholangiocytes; assay type: cell-based; settings: 3-day proliferation assay (FIG. 5A)
Source text: FIG. 5A depicts a human ADPKD 3-day proliferation assay showing decreased proliferation induced by both HDAC6 specific inhibitors, tubastatin-A and tubacin.
(§4) For in vitro experiments, cholangiocytes were isolated from control rats, PCK rats (an animal model for ARPKD; Vroman B, LaRusso N F: Development and characterization of polarized primary cultures of rat intrahepatic bile duct epithelial cells, Lab Invest 1996, 74:303-313), healthy human beings and ADPKD patients (Masyuk et al. Biliary exosomes influence cholangiocyte regulatory mechanisms and proliferation through interaction with primary cilia, Am J Physiol Gastrointest Liver Physiol (2010) 299:G990-999; O'Hara et al. Cholangiocyte N-Ras protein mediates lipopolysaccharide-induced interleukin 6 secretion and proliferation, J Biol Chem (2011) 286:30352-30360; Banales et al. Up-regulation of microRNA 506 leads to decreased Cl(−)/HCO(3) (−) anion exchanger 2 expression in biliary epithelium of patients with primary biliary cirrhosis, Hepatology (2012) 56(2):687-97).
Cholangiocytes were cultured in Collagen-I-coated flasks (BD Biocoat). All cell lines were incubated in NRC Media at 37° C., 5% CO2, 100% humidity. […]

c-myc = test: Western blot, c-myc in PCK cholangiocytes; assay type: cell-based, rat; settings: 2 μM Tubacin
Procedure: as §1
as §2, with “The membranes were incubated overnight at 4° C., washed and incubated for 1 hour at room temperature with horseradish perodixase-conjugated (1:5000, Invitrogen) or IRdye 680 or 800 (1:15000, Odyssey) corresponding secondary antibody. The ECL system or Odyssey Licor Scanner was used for protein detection and the Gel-Pro Analyzer 6.0 software was used for densitometry analysis.” left out

histone-3 = test: Western blot, histone-3 acetylation in PCK cholangiocytes; assay type: cell-based, rat; settings: 2 μM Tubacin
Procedure: as §1
as §2, with “The membranes were incubated overnight at 4° C., washed and incubated for 1 hour at room temperature with horseradish perodixase-conjugated (1:5000, Invitrogen) or IRdye 680 or 800 (1:15000, Odyssey) corresponding secondary antibody. The ECL system or Odyssey Licor Scanner was used for protein detection and the Gel-Pro Analyzer 6.0 software was used for densitometry analysis.” left out

cyclin D1 = test: Western blot, cyclin D1 in PCK cholangiocytes; assay type: cell-based, rat; settings: 2 μM Tubacin
Procedure: as §1
as §2, with “The membranes were incubated overnight at 4° C., washed and incubated for 1 hour at room temperature with horseradish perodixase-conjugated (1:5000, Invitrogen) or IRdye 680 or 800 (1:15000, Odyssey) corresponding secondary antibody. The ECL system or Odyssey Licor Scanner was used for protein detection and the Gel-Pro Analyzer 6.0 software was used for densitometry analysis.” left out

β-catenin mRNA = test: RT-PCR, β-catenin mRNA in PCK cholangiocytes; assay type: cell-based, rat; settings: 2 uM tubacin; over time
Procedure: as §1
RNA was isolated from control and PCK rat cholangiocytes with TRIZOL reagent (Invitrogen). cDNA was obtained using First Srand cDNA Synthesis (Invitrogen) reagents and HDAC6 primers (forward primer: 5′-TCAGCGCAGTCTTATGGATG-3′ (SEQ ID NO.: 1); reverse primer: 5′-GCGGTGGATGGAGAAATAGA-3′, SEQ ID NO.: 2) were purchased from Integrated DNA Technologies. β-catenin mRNA expression was analyzed using the TaqMan Gene Expression Assay (Assay ID Rn00584431_g1) following the manufacturer directions. The samples were normalized to 18S rRNA.

[4] = system: normal (NRC) cholangiocytes; test: Proliferation assay, normal rat cholangiocytes (NRC); assay type: cell-based; settings: 2, 4, and 8 μmol/L (FIG. 4A)
Source text: as §4
Cholangiocytes were cultured in Collagen-I-coated flasks (BD Biocoat). […]
Control and PCK rat cholangiocytes were cultured on Collagen-I-coated flasks (BD Biocoat) using NRC Media, detached with 0.25% Trypsin-EDTA (GIBCO), transferred to Collagen-I-coated 96-well plates (10 000 cells/well) and incubated at 37° C., 5% CO2, 100% humidity. […] Cell proliferation was assessed with the CellTiter 96 AQueous One Solution (MTS; Promega) and/or counting cells using the Cellometer Auto T4 Cell Counter (Nexcelom Bioscience).

β-catenin [5] = test: Immunofluorescence of β-catenin in PCK cholangiocytes; assay type: cell-based, rat; settings: nucleus and cytoplasm (FIG. 6B)
PCK rat = PCK rat model of polycystic liver disease, cystic area and fibrosis; assay type: in vivo
Source text: Bar=2500 μm. FIG. 4C, quantification analysis of cystic area expressed as percentage of total parenchyma area. *p<0.05.
The PCK rat model was used because the genetic mutation in this animal is orthologous to that found in human ARPKD. These animals express many of the characteristics of human […] (Lager D J, et al., Kidney Internat 59: 126-136, 2001; Harris, Curr Opin Nephrol Hypertens 11:309-314, 2002). The animals carrying this mutation present with both kidney and liver fibrocystic disease and these animals live long enough to facilitate long-term treatment protocols (Gattone V. H., et al., Nat Med (2003) 9: 1323-1326; Tones V. E., et al., Nat Med (2004) 10:363-364; Masyuk T. V., et al., Gastroenterology (2007) 132:1104-1116, 2007. Female animals show more severe liver disease than male animals.
The efficacy of the Compound A-1 was then tested in a PCK rat, an animal model of polycystic liver disease.

[6] = 2 μM Tubacin, total-β-catenin as loading control

O=C(NO)c1cnc(NC2(c3ccccc3)CCC(F)(F)CC2)nc1 [Compound C-2]
cyst formation in vivo (volume of cysts in the kidneys) (Male PKC-1 rats): decrease cyst formation

O=C(CCCCCCNC(=O)c1cnc(N(c2ccccc2)c2ccccc2Cl)nc1)NO [Compound B-1, 2-((2-chlorophenyl)(phenyl)amino)-N-(7-(hydroxyamino)-7-oxoheptyl)pyrimidine-5-carboxamide]
cyst formation in vivo (volume of cysts in the kidneys) (Male PKC-1 rats): decrease cyst formation

CN1CCc2c(c3ccccc3n2Cc2ccc(C(=O)NO)cc2)C1 [tubastatin A]
decrease of β-catenin level (β-catenin [1]; 20 μM Tubastatin A): 2.2 fold | increase of acetylated α-tubulin level compared to untreated cells (acetylated α-tubulin; 20 μM Tubastatin A): 13 fold | reduction of cyst growth compared to untreated cysts ([2]; 10 μM): 131% | reduction of proliferation of PCK cholangiocytes (PCK rat cholangiocytes; 5 μM): 2.5 folds | reduction of proliferation of PCK cholangiocytes (PCK rat cholangiocytes; 10 μM): 3.5 folds | reduction of proliferation of PCK cholangiocytes (PCK rat cholangiocytes; 20 μM): 4.15 folds | decrease of proliferation of cultured human ADPKD cholangiocytes [3]: 85%

O=C(CCCCCCC(=O)Nc1ccc([C@H]2O[C@@H](CSc3nc(-c4ccccc4)c(-c4ccccc4)o3)C[C@@H](c3ccc(CO)cc3)O2)cc1)NO [tubacin]
c-myc level (c-myc): decreasing | acetylation levels of histone-3 (histone-3): remained unaffected | decrease of β-catenin level (β-catenin [1]; 2 μM Tubacin): 5 fold | amount of acetyl-β-catenin compared to untreated cells (β-catenin [1]; [6]): increase | amount of phospho-β-catenin compared to untreated cells (β-catenin [1]; [6]): increase | β-catenin protein expression over time (β-catenin [1]; 2 uM tubacin): decrease in β-catenin protein expression over time | increase of acetylated α-tubulin level compared to untreated cells (acetylated α-tubulin; 2 μM Tubacin): 2.3 fold | cyclin D1 level (cyclin D1): decreasing | reduction of cyst growth compared to untreated cysts ([2]; 2 μM): 125% | reduction of PCK cholangiocyte proliferation (PCK rat cholangiocytes; tubacin, 3 day time period (FIG. 2B)): 2.94 folds | decrease of proliferation of cultured human ADPKD cholangiocytes [3]: 16% | β-catenin mRNA (β-catenin mRNA): remained stable

O=C(CCCCCCNC(=O)c1cnc(N(c2ccccc2)c2ccccc2)nc1)NO [Compound A-1, 2-(diphenylamino)-N-(7-(hydroxyamino)-7-oxoheptyl)pyrimidine-5-carboxamide]
proliferation of normal cells [4]: no significant effect | β-catenin expression in PCK cells (fluorescence quantification) (β-catenin [5]): reduced β-catenin expression | reduction of liver fibrosis (PCK rat; p<0.001): 30.5% | reduction of kidney cyst area (PCK rat; vs vehicle): 39.0% | reduction of liver cyst area (PCK rat; vs vehicle): 28.4% | PCK cells proliferation (PCK rat cholangiocytes; 2, 4, and 8 μmol/L (FIG. 4A)): inhibited by the Compound A-1 in a dose dependent manner
